# Laboratory results published in patent publication US8557767B2, “Synthetic apolipoprotein E mimicking polypeptides and methods of use” (UAB Research Foundation, priority 2007, dated 2013).
# Assays:
# HepG2 cells = assay: Apo A-I / prebeta-HDL secretion by HepG2 cells; format: cell-based
# human VLDL = settings: cited from earlier work
# [1] = system: B-100-containing particles; assay: Association of peptide with mouse apo B-100-containing particles; format: binding; settings: LDL-R (null) and C57BL6 on normal chow
# From the text: (§1) Although Ac-hE-18A-NH2 enhanced the hepatic uptake and degradation of atherogenic lipoproteins in apo E null mice, dual knockout mice (LDL-R(null)-apo E(null)), and C57BL/6 on an atherogenic diet, the peptide had no effect on the plasma cholesterol levels of C57BL/6 on normal chow, LDL-R(null) on normal chow or on a Western diet. […] However, the peptide is able to associate with human LDL (containing apo B-100) and VLDL and is able to enhance uptake and degradation of atherogenic human lipoproteins in HepG2 cells and in LDL-R (null) mouse model (Garber, D. W. et al. Atherosclerosis. 163:229-237 2003). The reason for the difference in the properties of apo B-100-containing human LDL and mouse LDL is not clear.
# [2] = system: monocyte chemotaxis protein-1 (MCP-1); assay: LPS-induced MCP-1 in HUVEC; format: cell-based, human
# From the text: The effect of the peptide on the inflammatory response of bacterial lipopolysaccaride (LPS), a potent inducer of cytokines and cell adhesion molecules was also examined.
# [3] = system: C57BL/6J mice fed an atherogenic diet; assay: Plasma cholesterol after one-time i.v. administration in C57BL/6J mice fed an atherogenic diet; format: in vivo
# apo E null mice = assay: Plasma cholesterol in apo E null mice after i.v. dual-domain peptides; format: in vivo; settings: iv, n=4
# Method: The peptides represented are Ac-hE-18A-NH2, Ac-hE4F-NH2, and Ac-hE-Sc2F-NH2. Peptides Ac-hE-18A-NH2, Ac-hE-4F-NH2 and Ac-hE-Sc18A were administered (i.v.) to apo E null mice (n=4) and plasma cholesterol values were determined at before administration (0 min), 5 min and 2 h after administration.
# As described above, peptides Ac-hE-18A-NH2, Ac-hE-4F-NH2 and Ac-hE-Sc18A were administered (iv) to apo E null mice (n=4) and plasma cholesterol values were determined at before administration (0 min), 5 min and 2 h after administration.
# [4] = system: atherogenic apo B-containing lipoproteins in human plasma; settings: cited from earlier work
# [5] = system: C57BL/6 on normal chow, LDL-R(null) mice; assay: Plasma cholesterol in C57BL/6 on normal chow and LDL-R(null) mice; format: in vivo; settings: LDL-R(null) on normal chow or on a Western diet
# From the text: as §1
# [6] = 3 mg/kg; 6 weeks of 1% cholesterol diet, one month after administration; not significantly different from control
# From the text: For these studies, NZW rabbits that respond to diet can be selected. All animals are fed a 1% cholesterol diet and their cholesterol values determined three days after the diet initiation. Twenty rabbits with similar cholesterol levels can be selected and changed back to a normal diet. After 15 days on a normal diet, cholesterol values can once again be determined to check if the values returned to normal. Animals whose cholesterol values have not returned to pre-diet levels can be monitored until they are normalized or removed from the study. Ten rabbits in each group are selected and simultaneous peptide administration and 1% diet initiation can follow. […] To study dose-response effects, smaller number of animals (five in each group can be administered three doses of peptide (5 mg/kg, 3 mg/kg and 1.5 mg/kg). After the initial experiments, the dose of the peptide can be decided. A solution of the peptide (sterile saline) can be injected through the ear vein, once a week for the duration of the study (based on previous experience, for 6 weeks). The study parameters include total cholesterol, lipoprotein levels, LOOH levels, PON activity in the plasma. At the end of six weeks, the rabbits are euthanized and histology assessed.
# [7] = system: NZW rabbits on 1% cholesterol diet; assay: Peptide administration to NZW rabbits on 1% cholesterol diet; format: in vivo, rabbit
# Method: Administration of Ac-hE18A-NH2 to high fat diet administered rabbits with initial cholesterol values in the range of 600 mg/dl (1 week on 1% cholesterol diet). […] A 50% decrease in plasma cholesterol was observed after administration of the peptide.
# This occurs through a lowering of plasma lipid hydroperoxide levels concomitant with a significant increase in the plasma paraoxonase (PON-1) activity. In the WHHL model, the LDL-R pathway is compromised, thus the accelerated atherogenic lipoprotein clearance is likely via the cell surface HSPG-mediated pathway, as described earlier in murine models (Garber, D. W. et al. Atherosclerosis. 163:229-237 2003).
# It has been shown that very small amounts of D-4F, a class A amphipathic helical peptide, modifies several HDL properties (Navab, M., et al. Circulation 109:3215-3220 2004). […] NZW rabbits have been studied for hypercholesterolemia and relative LDL and β-VLDL production using diets containing different amounts of cholesterol (Holvoet, P. et al. Arterioscl. Thromb. Vasc. Biol. 17:2376-2382 1997). Thus, with 0.125% (w/w) cholesterol diet, LDL cholesterol levels increase; with 0.5% and higher cholesterol levels in the diet, […]-VLDL (containing apo B-100) increases dramatically. These β-VLDL particles contain increased amounts of oxidized lipids, thus enhancing the progression of atherosclerosis (Holvoet, P. et al. Arterioscl. Thromb. Vasc. Biol. 17:2376-2382 1997). To assess the effect of the peptide in this rabbit model, a 1% cholesterol diet fed NZW rabbits were utilized.
# Rabbits responding to high cholesterol diet were randomized one week after the start of the diet to select rabbits with similar response (similar amounts of total plasma cholesterol). […] After 14 days from the first administration, plasma samples were taken from both the peptide-administered and saline administered (control) rabbits (n=3 in each group). The plasma samples from the peptide administered rabbits were not turbid, whereas the plasma samples from control rabbits were turbid. […] A second dose of peptide was administered 15 days after the first treatment. Since the cholesterol levels remained low two weeks after the second administration in peptide-administered rabbits, these and saline administered rabbits were sacrificed 51 days after the initiation of the diet. Aorta from the peptide administered and control rabbits were stained with Oil Red O. Aorta from the peptide administered rabbits had 40-50% less lesion than the control rabbit aorta.
# Therefore, possible reasons for the clearance of atherogenic lipoproteins can be in addition to rapid hepatic clearance similar to the properties of apo E, modulation of HDL properties or synthesis of macrophage apo E. If this is true, this peptide may also exert its effect on endothelial function. Indeed it was observed that there is a recovery of endothelial function as studied by the acetylcholine dose-dependent aortal relaxation (FIG. 13). […] It is possible that lipid lowering can cause reduction of oxidative stress and thus inhibition of endothelial activation.
# Results observed in HepG2 cells indicate that peptide associates with apo B-containing plasma lipoproteins to incorporate positive charges on the lipoprotein surface. This enables the apo B-containing lipoproteins to interact with heparan sulphate proteoglycans (HSPGs). The effect of these peptides on the mode of reduction of plasma cholesterol levels in mouse models and the two rabbit models can be determined. In NZW rabbits fed a 1% cholesterol-diet, a reduction of plasma cholesterol is observed which lasts for 14 days after the peptide administration; whereas in the WHHL rabbits, the reduction is initially rapid and returns to original levels within 3 days. Since the WHHL rabbit model is LDL-receptor defective, the differential effects of the peptide in two models can be due to differences in the receptor-mediated clearance pathways of atherogenic lipoproteins. […]
# [8] = peptide-associated VLDL, absence of apo E
substance,measurement,setting,value
Ac-LRKLRKRLLRDWLKAFYDKVAEKLKEAF-NH2 [Ac-hE-18A-NH2],prebeta-HDL production,"HepG2 cells; equal amount on weight basis (50 ug/ml), first overnight incubation",produced preβ-HDL
same,prebeta-HDL amount after second and third overnight incubation,HepG2 cells; fresh cell medium without peptide,produced significant amounts
same,interaction with VLDL,human VLDL,displacement of apo E from VLDL
same,enhanced degradation of VLDL compared to VLDL alone,human VLDL; [8],three
same,enhanced uptake of VLDL compared to VLDL alone,human VLDL; [8],six
same,association with B-100-containing particles,[1],not able to associate
same,effect on MCP-1,[2],also inhibited
same,time for which lower total cholesterol levels were observed vs control,"[3]; 100 ug i.v. one time, continued atherogenic diet",≥ 8 days
same,initial decrease of plasma cholesterol,"[3]; 100 ug i.v., n=9",> 65%
same,reduction in plasma cholesterol levels at 2 h time point,apo E null mice,large reduction
same,association with atherogenic apo B-containing lipoproteins,[4],associates with atherogenic apo B-containing lipoproteins
same,effect on plasma cholesterol levels,[5],no effect
same,average body weight,[6],4.8 ± 0.4 kg
same,average daily food intake,[6],0.17 ± 0.03 kg
same,less aorta lesion than control (Oil Red O),"[7]; 3 mg/kg i.v. twice, sacrificed 51 days after initiation of diet",40-50%
same,amounts of VLDL and LDL in plasma,"[7]; 3 mg/kg i.v., 14 days after first administration, n=3",Significantly decreased
same,lesion by en face analysis after 50 days,"[7]; 3 mg/kg, saline-treated control ~50% lesion coverage",little to no lesion
same,decrease in plasma cholesterol,"[7]; 5 mg/kg iv two times, n=4 (FIG. 11 legend)",50%
same,plasma cholesterol values at end of 14 days,"[7]; 5 mg/kg iv two times, n=4, control in the range of 2000 mg/dl",~1000 mg/dL
same,plasma cholesterol less than in control rabbits at end of experiment,[7]; 7.5 mg/kg i.v. in two intervals one week apart,50%
same,duration of reduction of plasma cholesterol after peptide administration,[7]; NZW rabbits fed 1% cholesterol diet,14 days
same,"endothelial function, acetylcholine dose-dependent aortal relaxation",[7]; aortal rings after 51 days of 1% cholesterol diet,vascular response almost similar to aortas obtained from rabbits on a normal diet
same,time for which total plasma cholesterol levels were significantly decreased,[7]; single intravenous administration 3 mg/kg,15 days
same,plasma clearance of the peptide,3 mg/kg radiolabelled peptide,much faster than that observed in WHHL rabbits
same,plasma residence time t1/2,rabbits,1 to 2 min
